Results: the Deep4Chem optical property database
Where “and” joins values, the source holds several entries; their conditions need not be identical. Equal entries are not always repeated.

Experiment: photoluminescence quantum yield (fraction); solvent given as SMILES

CCCCOC(=O)c1cc(Cl)c2c3c(Cl)cc4c5c(cc(Cl)c(c6c(Oc7ccc(C(=O)OC)cc7)cc(C(=O)OCCCC)c1c26)c53)C(=O)N(c1c(C(C)C)cccc1C(C)C)C4=O
photoluminescence quantum yield (in Cc1ccccc1): 0.92

CC(=O)[B-]1(C(C)=O)OC(c2ccc3ccccc3c2)=CC(c2ccc3ccccc3c2)=[O+]1
photoluminescence quantum yield (in CC#N): 0.56
photoluminescence quantum yield (in ClC(Cl)(Cl)Cl): 0.61

COc1ccc(-c2csc(/C(C#N)=C/c3ccc(C#N)cc3)n2)cc1
photoluminescence quantum yield (in CC#N): 0.008
photoluminescence quantum yield (in CCO): 0.008
photoluminescence quantum yield (in CN(C)C=O): 0.002
photoluminescence quantum yield (in Cc1ccccc1): 0.248
photoluminescence quantum yield (in ClCCl): 0.065

COc1ccc(C2=[N+]3C(=Nc4c(-c5cc(OC)c(OC)c(OC)c5)cc(-c5ccc(OC)cc5)n4[B-]3(F)F)C(c3cc(OC)c(OC)c(OC)c3)=C2)cc1
photoluminescence quantum yield (in Cc1ccccc1): 0.24

CC(=O)n1cc(/C=C/c2ccc([N+](=O)[O-])cc2)c2ccccc21
photoluminescence quantum yield (in CC#N): 0.045
photoluminescence quantum yield (in CCCCCCC): 0.008
photoluminescence quantum yield (in CO): 0.002
photoluminescence quantum yield (in O): 0.003

CCCCCCCc1cc2c(o1)=CC1=C3c4cc5oc(CCCCCCC)cc5n4[B-](F)(F)[n+]4nnn(c43)[B-](F)(F)[N+]=21
photoluminescence quantum yield (in C1CCOC1): 0.34
photoluminescence quantum yield (in ClCCl): 0.39

N#Cc1c(-n2c3ccccc3c3ccccc32)c(-n2c3ccccc3c3ccccc32)c(-n2c3ccccc3c3ccccc32)c(-n2c3ccccc3c3ccccc32)c1-n1c2ccccc2c2ccccc21
photoluminescence quantum yield (in Cc1ccccc1): 0.75 and 0.7
photoluminescence quantum yield (in c1cc(-c2cccc(-n3c4ccccc4c4ccccc43)c2)cc(-n2c3ccccc3c3ccccc32)c1): 0.65

c1cc2c3c(c1)-c1ccc4c5c(ccc(c15)B3c1ccc3c5c(ccc-2c15)CC3)CC4
photoluminescence quantum yield (in Cc1ccccc1): 0.79

CC(C)(C)c1ccc2c(c1)c1cc(C(C)(C)C)ccc1n2-c1ccc(S(=O)(=O)c2ccc(-n3c4ccc(C(C)(C)C)cc4c4cc(C(C)(C)C)ccc43)cn2)nc1
photoluminescence quantum yield (in O=P(c1ccccc1)(c1ccccc1)c1ccc2sc3cccc(P(=O)(c4ccccc4)c4ccccc4)c3c2c1): 0.62

COc1ccc2cc(/C=C/C3=C4CCc5ccccc5C4=[O+][B-](F)(F)O3)ccc2c1
photoluminescence quantum yield (in ClCCl): 0.33

Cc1nc2c(c[n+]1C)CN1C(=O)N([C@H]3O[C@@H](CO)[C@H](O)[C@@H]3O)C=CC1=N2
photoluminescence quantum yield (in CC#N): 0.99
photoluminescence quantum yield (in CC(C)=O): 0.94
photoluminescence quantum yield (in CCCCO): 0.12
photoluminescence quantum yield (in CCCO): 0.11
photoluminescence quantum yield (in CCO): 0.14
photoluminescence quantum yield (in CO): 0.14
photoluminescence quantum yield (in O): 0.38
photoluminescence quantum yield (in [2H]OC): 0.15
photoluminescence quantum yield (in [2H]OCC): 0.14
photoluminescence quantum yield (in [2H]O[2H]): 0.42

COc1ccc(C2=C(Br)C(c3ccccc3)=[N+]3C2=Nc2c(-c4ccc(OC)cc4)c(Br)c(-c4ccccc4)n2[B-]3(F)F)cc1
photoluminescence quantum yield (in Cc1ccccc1): 0.01

COc1ccc(C#Cc2c3ccccc3c(C#Cc3ccc(OC)cc3)c3cc4ccccc4cc23)cc1
photoluminescence quantum yield (in ClCCl): 0.85

c1ccc2c(c1)ncc1ccc3cnc4ccccc4c3c12
photoluminescence quantum yield (in CC#N): 0.14

CC(C)(C)c1ccc2c(c1)c1cc(C(C)(C)C)ccc1n2-c1cc(N2c3ccccc3C(c3ccccc3)(c3ccccc3)c3ccccc32)cc(-n2c3ccc(C(C)(C)C)cc3c3cc(C(C)(C)C)ccc32)c1C#N
photoluminescence quantum yield (in Cc1ccccc1): 0.2

c1ccc(N2c3ccc4ccccc4c3-c3c4ccccc4nc[n+]3[B-]2(c2ccccc2)c2ccccc2)cc1
photoluminescence quantum yield (in C1CCC2CCCCC2C1): 0.07
photoluminescence quantum yield (in C1CCCCC1): 0.06
photoluminescence quantum yield (in CCCCCC): 0.06
photoluminescence quantum yield (in CCOC(C)=O): 0.02
photoluminescence quantum yield (in Cc1ccccc1): 0.03
photoluminescence quantum yield (in ClC(Cl)Cl): 0.01

CC1(C)[C@@H]2CC[C@]1(C)c1nc3cc(-c4cccs4)ccc3nc12
photoluminescence quantum yield (in CC#N): 0.06
photoluminescence quantum yield (in CCCCO): 0.35
photoluminescence quantum yield (in CCO): 0.37
photoluminescence quantum yield (in CCOC(C)=O): 0.02
photoluminescence quantum yield (in CO): 0.52
photoluminescence quantum yield (in Cc1ccccc1): 0.01
photoluminescence quantum yield (in ClC(Cl)Cl): 0.11
photoluminescence quantum yield (in ClCCl): 0.05

Cc1ccc(-c2cc(-c3ccc(N(C)C)cc3)c3c(N)nc(N4CCCC4)c(C#N)c3n2)cc1
photoluminescence quantum yield (in CC#N): 0.095
photoluminescence quantum yield (in c1ccccc1): 0.083

O=P1(c2ccccc2)C(c2cccs2)=C(c2cccs2)c2ccccc21 (configuration not stated)
photoluminescence quantum yield (in C1CCOC1): 0.006

O=C(c1ccc2c3c(sc2c1)-c1ccccc1P3(=O)c1ccccc1)c1c(F)c(F)c(F)c(F)c1F (configuration not stated)
photoluminescence quantum yield (in ClCCl): 0.29

O=C1/C(=C2\Nc3cc4ccc5cccc6ccc(c3C2=O)c4c56)Nc2cc3ccc4cccc5ccc(c21)c3c45
photoluminescence quantum yield (in C1CCOC1): 0.0076

F[B-]1(F)n2c(c(-c3ccccc3)c3c2C2=Cc4ccccc4OC2CC3)C=C2C(c3ccccc3)=C3CCC4Oc5ccccc5C=C4C3=[N+]21 (configuration not stated)
photoluminescence quantum yield (in ClC(Cl)Cl): 0.06

CN1C(C(=O)Nc2ccccn2)=C(O)c2sccc2S1(=O)=O
photoluminescence quantum yield (in C1COCCO1): 0.0191
photoluminescence quantum yield (in CC#N): 0.00752
photoluminescence quantum yield (in CCCCO): 0.0169
photoluminescence quantum yield (in CCCO): 0.0108
photoluminescence quantum yield (in CCO): 0.00738
photoluminescence quantum yield (in CCOC(C)=O): 0.0275
photoluminescence quantum yield (in CO): 0.00499

Cc1ccc(N(c2ccc(C)cc2)c2ccc(Oc3nnc(Cl)nn3)cc2)cc1
photoluminescence quantum yield (in ClCCl): 0.0006
